The term IC50 denotes the point on the concentration scale where inhibition reaches its midpoint.

The source of these data is patent US20220169598A1, “HALOGENATED PHENYLSULFONAMIDE HYDROXAMIC ACID COMPOUNDS, COMPOSITIONS AND USES THEREOF AS SELECTIVE HDAC6 INHIBITORS” (2681603 ONTARIO INC., priority 2019, published 2022).

Structures are written as SMILES.

The subject of one data set is MV-4-11. Briefly: Apoptosis induction by FACS (FITC-Annexin V / PI). It counts as cell-based. To be noted: MV-4-11, increasing concentration of inhibitor. For orientation: In flow cytometry, cells or beads pass a laser one at a time.
A short description of data set [1]: Kinetic solubility by analytical HPLC. Format: physicochemical. The note with it: PBS with 5% (v/v) DMSO, aqueous with cosolvent or surfactant or cyclodextrin, kinetic from dmso stock; PBS + 5% DMSO; initial concentration 300 μM; read-out: Saturation Concentration. How it is done:
The initial concentration of each exemplary compound was 300 μM.

The target of another data set is HDAC8 (Homo sapiens, UniProt Q9BY41). The data set can be described thus: in vitro activity-based HDAC assay. It counts as biochemical. To be noted: human HDAC isoform panel, Table 1.
HDAC8, sequence (Q9BY41 whole entry, canonical isoform): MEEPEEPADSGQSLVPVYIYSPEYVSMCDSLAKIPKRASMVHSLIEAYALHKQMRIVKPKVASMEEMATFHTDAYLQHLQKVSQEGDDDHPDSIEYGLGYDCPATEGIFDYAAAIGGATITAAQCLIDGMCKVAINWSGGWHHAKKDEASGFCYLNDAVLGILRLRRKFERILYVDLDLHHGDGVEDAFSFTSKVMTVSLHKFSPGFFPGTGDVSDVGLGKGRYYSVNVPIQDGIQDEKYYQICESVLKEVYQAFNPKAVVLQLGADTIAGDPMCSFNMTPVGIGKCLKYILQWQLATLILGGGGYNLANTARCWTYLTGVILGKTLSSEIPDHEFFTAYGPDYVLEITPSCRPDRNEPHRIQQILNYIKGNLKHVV
In another data set the target is T1, HDAC6 (Homo sapiens, UniProt Q9UBN7).
T1 sequence (Q9UBN7 1-1215): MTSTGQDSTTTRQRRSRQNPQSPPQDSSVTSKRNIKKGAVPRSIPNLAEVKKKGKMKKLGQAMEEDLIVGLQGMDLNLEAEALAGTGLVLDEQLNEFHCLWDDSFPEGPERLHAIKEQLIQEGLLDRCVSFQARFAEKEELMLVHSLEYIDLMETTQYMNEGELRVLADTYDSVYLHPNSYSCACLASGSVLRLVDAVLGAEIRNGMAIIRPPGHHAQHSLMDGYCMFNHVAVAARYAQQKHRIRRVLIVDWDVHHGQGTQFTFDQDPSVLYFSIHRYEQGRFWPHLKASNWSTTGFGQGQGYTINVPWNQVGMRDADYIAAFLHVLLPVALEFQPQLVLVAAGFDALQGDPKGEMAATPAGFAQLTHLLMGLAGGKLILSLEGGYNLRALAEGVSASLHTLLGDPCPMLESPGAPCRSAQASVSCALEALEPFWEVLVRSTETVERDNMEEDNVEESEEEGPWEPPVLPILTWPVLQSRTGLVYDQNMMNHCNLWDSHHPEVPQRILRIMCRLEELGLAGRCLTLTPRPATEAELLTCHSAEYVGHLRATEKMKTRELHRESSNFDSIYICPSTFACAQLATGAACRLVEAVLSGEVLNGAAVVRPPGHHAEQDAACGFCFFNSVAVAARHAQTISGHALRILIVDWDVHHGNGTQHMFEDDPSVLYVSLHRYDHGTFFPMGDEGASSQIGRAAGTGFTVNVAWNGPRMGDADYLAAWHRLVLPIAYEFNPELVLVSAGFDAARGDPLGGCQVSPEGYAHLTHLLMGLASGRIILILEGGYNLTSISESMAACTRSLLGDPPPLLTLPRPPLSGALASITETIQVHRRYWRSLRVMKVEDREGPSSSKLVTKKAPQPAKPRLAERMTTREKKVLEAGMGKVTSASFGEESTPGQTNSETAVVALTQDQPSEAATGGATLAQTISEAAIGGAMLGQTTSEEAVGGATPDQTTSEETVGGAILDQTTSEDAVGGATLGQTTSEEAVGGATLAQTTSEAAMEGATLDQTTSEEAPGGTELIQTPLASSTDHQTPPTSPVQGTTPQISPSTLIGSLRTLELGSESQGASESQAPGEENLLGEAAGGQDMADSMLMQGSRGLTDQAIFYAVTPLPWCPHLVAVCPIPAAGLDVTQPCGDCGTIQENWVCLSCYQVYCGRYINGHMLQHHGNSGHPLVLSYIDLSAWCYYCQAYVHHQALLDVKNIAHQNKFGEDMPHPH
The data set can be described thus: in vitro activity-based HDAC assay. Format: biochemical. To be noted: human HDAC isoform panel, Table 1; read-out: IC50 HDAC6.

A further data set deals with HDAC5 (Homo sapiens, UniProt Q9UQL6). Briefly: in vitro activity-based HDAC assay. Format: biochemical. To be noted: human HDAC isoform panel, Table 1.
HDAC5, sequence (Q9UQL6 whole entry, canonical isoform): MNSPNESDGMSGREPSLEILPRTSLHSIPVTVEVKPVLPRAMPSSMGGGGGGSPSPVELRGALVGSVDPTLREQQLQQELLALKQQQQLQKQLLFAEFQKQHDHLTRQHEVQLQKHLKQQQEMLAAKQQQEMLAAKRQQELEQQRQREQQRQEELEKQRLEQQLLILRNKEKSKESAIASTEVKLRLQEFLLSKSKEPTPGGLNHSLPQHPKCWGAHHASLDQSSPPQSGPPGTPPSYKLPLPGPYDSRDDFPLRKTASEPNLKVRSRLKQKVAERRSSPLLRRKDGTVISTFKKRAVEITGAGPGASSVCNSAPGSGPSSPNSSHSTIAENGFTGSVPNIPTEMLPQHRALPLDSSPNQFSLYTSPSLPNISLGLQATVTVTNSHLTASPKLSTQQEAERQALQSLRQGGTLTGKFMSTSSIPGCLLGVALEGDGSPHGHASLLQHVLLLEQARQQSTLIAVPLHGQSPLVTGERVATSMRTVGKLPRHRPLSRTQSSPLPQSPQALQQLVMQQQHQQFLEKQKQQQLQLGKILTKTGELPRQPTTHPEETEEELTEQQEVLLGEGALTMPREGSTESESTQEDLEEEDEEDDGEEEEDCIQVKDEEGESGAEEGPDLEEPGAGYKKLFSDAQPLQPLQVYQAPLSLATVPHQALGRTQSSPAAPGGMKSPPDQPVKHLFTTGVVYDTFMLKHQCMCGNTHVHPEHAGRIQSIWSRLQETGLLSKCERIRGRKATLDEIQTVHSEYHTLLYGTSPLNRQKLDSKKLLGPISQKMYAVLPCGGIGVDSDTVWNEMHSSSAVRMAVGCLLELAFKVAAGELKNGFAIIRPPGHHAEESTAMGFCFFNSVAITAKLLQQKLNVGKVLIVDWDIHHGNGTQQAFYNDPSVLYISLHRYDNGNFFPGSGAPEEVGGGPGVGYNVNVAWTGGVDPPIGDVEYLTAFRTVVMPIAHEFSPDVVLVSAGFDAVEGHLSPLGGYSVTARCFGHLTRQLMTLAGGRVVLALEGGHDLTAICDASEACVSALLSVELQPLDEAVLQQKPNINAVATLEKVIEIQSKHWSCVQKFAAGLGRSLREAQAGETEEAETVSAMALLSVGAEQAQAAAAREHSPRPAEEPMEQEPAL
In the next data set the target is T2, HDAC7 (Homo sapiens, UniProt Q8WUI4).
T2 sequence (Q8WUI4 1-952): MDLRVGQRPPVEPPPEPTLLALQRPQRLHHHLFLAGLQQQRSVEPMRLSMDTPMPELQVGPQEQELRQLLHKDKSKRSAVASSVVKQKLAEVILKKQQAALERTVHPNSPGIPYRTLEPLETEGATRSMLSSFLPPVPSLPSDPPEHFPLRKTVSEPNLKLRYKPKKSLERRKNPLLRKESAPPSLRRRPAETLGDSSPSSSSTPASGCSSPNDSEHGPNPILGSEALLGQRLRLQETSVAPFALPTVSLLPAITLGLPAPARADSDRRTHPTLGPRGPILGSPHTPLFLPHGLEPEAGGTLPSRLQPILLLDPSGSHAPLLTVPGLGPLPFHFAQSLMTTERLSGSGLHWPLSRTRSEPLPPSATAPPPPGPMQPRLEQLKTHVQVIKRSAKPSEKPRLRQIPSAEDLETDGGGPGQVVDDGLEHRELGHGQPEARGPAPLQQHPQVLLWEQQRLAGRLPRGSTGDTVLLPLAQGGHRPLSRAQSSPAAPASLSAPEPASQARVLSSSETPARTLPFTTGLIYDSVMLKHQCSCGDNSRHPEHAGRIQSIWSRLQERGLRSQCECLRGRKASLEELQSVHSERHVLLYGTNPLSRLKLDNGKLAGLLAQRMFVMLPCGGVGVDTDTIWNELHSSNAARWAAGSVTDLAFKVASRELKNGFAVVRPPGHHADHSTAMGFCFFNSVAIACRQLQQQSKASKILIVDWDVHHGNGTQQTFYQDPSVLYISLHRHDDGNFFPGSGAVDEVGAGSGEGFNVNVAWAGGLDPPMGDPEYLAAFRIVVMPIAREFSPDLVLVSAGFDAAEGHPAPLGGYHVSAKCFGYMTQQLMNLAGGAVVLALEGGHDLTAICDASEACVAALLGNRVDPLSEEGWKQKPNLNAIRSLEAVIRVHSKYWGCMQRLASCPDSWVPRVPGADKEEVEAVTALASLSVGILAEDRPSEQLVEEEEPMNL
Briefly: in vitro activity-based HDAC assay. It counts as biochemical. The note with it: human HDAC isoform panel, Table 1.

The target in the next data set is HDAC11 (Homo sapiens, UniProt Q96DB2). Briefly: in vitro activity-based HDAC assay. It counts as biochemical. The note with it: human HDAC isoform panel, Table 1.
HDAC11, sequence (Q96DB2 whole entry, canonical isoform): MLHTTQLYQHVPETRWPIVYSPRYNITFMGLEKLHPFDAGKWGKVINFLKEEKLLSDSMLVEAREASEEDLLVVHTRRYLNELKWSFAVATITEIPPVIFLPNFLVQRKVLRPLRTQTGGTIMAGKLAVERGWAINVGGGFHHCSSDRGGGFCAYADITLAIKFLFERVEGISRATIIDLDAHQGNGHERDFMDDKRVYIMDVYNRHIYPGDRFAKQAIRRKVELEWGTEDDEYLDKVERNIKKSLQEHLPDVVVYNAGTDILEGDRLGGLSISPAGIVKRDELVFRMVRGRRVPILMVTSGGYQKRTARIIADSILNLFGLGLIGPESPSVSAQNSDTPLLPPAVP
A further data set addresses HDAC4 (Homo sapiens, UniProt P56524). Briefly: in vitro activity-based HDAC assay. Format: biochemical. To be noted: human HDAC isoform panel, Table 1.
The target of another data set is HDAC9 (Homo sapiens, UniProt Q9UKV0). Briefly: in vitro activity-based HDAC assay. It counts as biochemical. To be noted: human HDAC isoform panel, Table 1.
HDAC9, sequence (Q9UKV0 whole entry, canonical isoform): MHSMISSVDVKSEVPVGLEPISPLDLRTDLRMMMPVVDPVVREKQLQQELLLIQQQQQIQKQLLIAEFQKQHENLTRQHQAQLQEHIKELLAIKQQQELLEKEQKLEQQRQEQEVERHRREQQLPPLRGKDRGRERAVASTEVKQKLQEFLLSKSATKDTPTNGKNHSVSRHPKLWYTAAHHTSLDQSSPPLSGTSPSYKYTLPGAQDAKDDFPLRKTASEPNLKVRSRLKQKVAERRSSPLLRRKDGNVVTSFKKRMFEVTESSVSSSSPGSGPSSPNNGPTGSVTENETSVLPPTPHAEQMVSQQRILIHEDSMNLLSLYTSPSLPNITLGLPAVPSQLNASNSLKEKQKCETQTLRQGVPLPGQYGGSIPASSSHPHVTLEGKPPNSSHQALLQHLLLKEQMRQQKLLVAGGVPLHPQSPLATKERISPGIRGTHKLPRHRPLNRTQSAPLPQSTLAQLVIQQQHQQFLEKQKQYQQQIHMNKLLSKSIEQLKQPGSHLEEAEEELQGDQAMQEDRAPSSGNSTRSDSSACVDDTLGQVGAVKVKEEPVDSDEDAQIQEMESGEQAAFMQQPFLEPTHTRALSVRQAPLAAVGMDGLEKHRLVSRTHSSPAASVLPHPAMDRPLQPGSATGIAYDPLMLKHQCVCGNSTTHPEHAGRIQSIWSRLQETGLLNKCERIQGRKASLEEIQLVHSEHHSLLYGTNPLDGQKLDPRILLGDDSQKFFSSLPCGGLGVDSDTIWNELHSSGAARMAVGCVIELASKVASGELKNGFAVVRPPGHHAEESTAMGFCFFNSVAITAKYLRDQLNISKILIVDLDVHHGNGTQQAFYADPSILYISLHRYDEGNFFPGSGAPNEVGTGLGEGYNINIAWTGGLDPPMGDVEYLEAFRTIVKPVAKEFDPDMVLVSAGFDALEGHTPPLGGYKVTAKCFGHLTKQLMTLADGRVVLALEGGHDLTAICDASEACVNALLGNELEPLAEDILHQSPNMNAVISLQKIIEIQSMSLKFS
The next data set concerns the target HDAC2 (Homo sapiens, UniProt Q92769). The data set can be described thus: in vitro activity-based HDAC assay. To be noted: human HDAC isoform panel, Table 1. Format: biochemical.

HDAC2, sequence (Q92769 whole entry, canonical isoform): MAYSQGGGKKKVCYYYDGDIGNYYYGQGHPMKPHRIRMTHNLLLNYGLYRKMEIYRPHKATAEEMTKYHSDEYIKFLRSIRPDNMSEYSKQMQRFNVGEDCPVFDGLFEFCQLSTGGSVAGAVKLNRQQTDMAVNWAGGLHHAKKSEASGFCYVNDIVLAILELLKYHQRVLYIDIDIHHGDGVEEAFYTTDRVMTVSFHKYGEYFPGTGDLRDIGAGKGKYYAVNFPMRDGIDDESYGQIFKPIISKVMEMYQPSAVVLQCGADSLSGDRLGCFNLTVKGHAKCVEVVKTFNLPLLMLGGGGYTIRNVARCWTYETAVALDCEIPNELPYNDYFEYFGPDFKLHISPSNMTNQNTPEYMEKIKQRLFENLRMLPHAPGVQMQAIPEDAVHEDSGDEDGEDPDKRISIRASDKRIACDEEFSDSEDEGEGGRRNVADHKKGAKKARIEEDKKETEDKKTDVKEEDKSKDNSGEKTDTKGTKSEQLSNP
HDAC4, sequence (P56524 whole entry, canonical isoform): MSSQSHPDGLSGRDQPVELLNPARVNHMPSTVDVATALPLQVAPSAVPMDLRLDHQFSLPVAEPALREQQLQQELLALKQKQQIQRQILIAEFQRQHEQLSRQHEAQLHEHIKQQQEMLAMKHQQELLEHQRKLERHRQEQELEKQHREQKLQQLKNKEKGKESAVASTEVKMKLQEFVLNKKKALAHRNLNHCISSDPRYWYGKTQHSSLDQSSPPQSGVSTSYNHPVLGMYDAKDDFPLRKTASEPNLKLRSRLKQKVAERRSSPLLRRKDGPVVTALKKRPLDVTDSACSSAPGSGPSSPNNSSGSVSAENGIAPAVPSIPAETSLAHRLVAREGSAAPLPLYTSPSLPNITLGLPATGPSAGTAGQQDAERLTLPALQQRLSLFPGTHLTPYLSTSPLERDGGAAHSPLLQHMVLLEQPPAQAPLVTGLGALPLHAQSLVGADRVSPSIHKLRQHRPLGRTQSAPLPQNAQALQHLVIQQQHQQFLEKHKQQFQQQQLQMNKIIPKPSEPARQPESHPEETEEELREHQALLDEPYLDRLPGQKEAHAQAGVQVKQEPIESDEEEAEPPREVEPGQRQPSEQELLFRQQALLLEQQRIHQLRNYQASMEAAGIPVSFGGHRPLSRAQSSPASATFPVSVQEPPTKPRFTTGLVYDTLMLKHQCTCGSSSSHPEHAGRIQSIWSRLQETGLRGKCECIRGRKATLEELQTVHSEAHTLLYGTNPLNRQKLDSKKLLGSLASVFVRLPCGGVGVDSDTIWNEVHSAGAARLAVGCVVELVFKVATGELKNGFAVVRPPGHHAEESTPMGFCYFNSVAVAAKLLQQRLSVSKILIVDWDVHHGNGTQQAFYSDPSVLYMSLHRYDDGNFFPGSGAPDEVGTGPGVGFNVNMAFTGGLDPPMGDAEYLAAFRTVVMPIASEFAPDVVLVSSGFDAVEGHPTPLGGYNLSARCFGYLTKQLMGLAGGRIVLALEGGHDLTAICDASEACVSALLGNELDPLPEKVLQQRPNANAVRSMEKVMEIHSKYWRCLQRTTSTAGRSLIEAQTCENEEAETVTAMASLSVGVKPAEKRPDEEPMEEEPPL

Consider `O=C(NO)c1ccc(CN(Cc2cccnc2)S(=O)(=O)c2cc(F)c(F)c(F)c2F)cc1` [Compound I-18, N-hydroxy-4-((2,3,4,5-tetrafluoro-N-(pyridin-3-ylmethyl)phenylsulfonamido)methyl)benzamide], for which the “apoptotic-inducting potential (FACS)” value in the data set on MV-4-11 was “larger populations of cells undergoing early apoptosis”. For the same compound, the solubility kinetic in [1] was 142 ± 2.4 µM. For the same compound, the concentration for half-maximal inhibition (IC50) is 316 nM against HDAC8; 2 nM at HDAC6; over 1000 nM at HDAC5; over 1000 nM against HDAC7; over 1000 nM at HDAC11; over 1000 nM against HDAC4. The concentration for half-maximal inhibition (IC50) on HDAC9 and against HDAC2 was over 1000 nM throughout.

In the case of `O=C(NO)c1ccc(CN(C2CC2)S(=O)(=O)c2cc(F)c(F)c(F)c2F)cc1` [Compound I-13, 4-((N-cyclopropyl-2,3,4,5-tetrafluorophenylsulfonamido)methyl)-N-hydroxybenzamide], the “apoptotic-inducting potential (FACS)” value in the data set with MV-4-11 is given as “larger populations of cells undergoing early apoptosis”. In addition, the solubility kinetic in data set [1] stood at 88.1 ± 1.6 µM. Besides, the IC50 on HDAC8 is 334 nM; on HDAC6, 9 nM; against HDAC5 it was over 1000 nM; at HDAC7, over 1000 nM; against HDAC11, over 1000 nM; at HDAC4, over 1000 nM. Also, the concentration for half-maximal inhibition (IC50) against HDAC9 and on HDAC2 was over 1000 nM in each case.
